Here are results for two compounds from patent US5932619A, “Method for preventing sexually transmitted diseases” (Rush-Presbyterian, St. Luke's Medical Center, priority 1997, dated 1999).

Data set [1] concerns HIV-1. Description: Viral binding inhibition assay (syncytia formation in MT2 cells). Format: cell-based, HIV-1 (strain III).
Description: Cultures of MT2 cells (plated in 96-well cell culture plates at about 10,000 cells per well) were grown in a RPMI 1640 medium (Gibco, cat. no. 320-1867AG) which was supplemented with 10 percent fetal bovine serum, 100 I.U./ml penicillin, 100 μg/ml streptomycin, 20 μg/ml gentamicin, and 25 mM HEPES.
The resulting cultures were incubated at 37° C. […] The cultures were then scored microscopically for syncytia formation. […] Data are expressed as percent of a control value (no added test agent) viral titer and plotted as a function of concentration of the test agent. lC50 values (concentration of agent causing 50 percent inhibition) were calculated from the plots of concentration versus viral titer using curve-fitting software.
The subject of data set [2] is HSV (type 2, strain 333). Description: Anti-HSV plaque assay on Vero cells. Format: cell-based, herpes simplex virus. The protocol: Viral infectivity was measured by co-culturing herpes simplex virus (HSV) with Vero (African green monkey kidney) cells in phosphate-buffered solutions.
The test agent was serially diluted (0.1 μg/ml to 500 μg/ml) in phosphate-buffered saline (PBS). Each dilution was mixed with HSV (type 2, strain 333). Samples (1 ml) of each mixture were plated in triplicate on washed and drained monolayers of Vero (African green monkey kidney) cells on the bottom of […] flasks. The initial titer in each culture was determined as plaque forming units per milliliter using control cultures with no added test agents. Flasks were incubated at 37° C. for 2 hours and the medium (containing virus and test agent) removed. After washing the cells with PBS, the cells were cultured in supplemented medium 199 (Sigma Chem., cat. no. M9163) for 3 days. After culturing, the cells were stained with Giemsa and the number of viral plaques was determined by phase contrast microscopy. After correcting for dilutions, the viral titer was estimated from the number of plaques. Data were also expressed as the percentage of plaques relative to the control samples (not exposed to test agents). […] The concentration of test agent that was required to reduce the viral titer by 50 percent (IC50) was estimated with curve-fitting software from plots of plaque-forming units per milliliter against the concentration of test agent.

Data set [3] relates to sheep testicular hyaluronidase. The data set is described as follows: Hyaluronidase inhibition (hyaluronic acid hydrolysis). The settings on record: for IC50: pH 5.5, 10 minutes preincubation. It counts as biochemical. The protocol:
Hyaluronidase activity was quantitatively determined by measuring the extent of hyaluronic acid hydrolysis (i.e., the concentration of N-acetylglucosamine-reactive material formed from enzyme activity). Reaction mixtures (0.25 ml) containing the following were prepared: test compound (variable concentration); 0.1 M sodium acetate; 0.15 M sodium chloride; pH adjusted to 5.5; 7.2 units sheep testicular hyaluronidase (Sigma, Type III; H-2251) contained in an acetate buffer; 0.3 mg/ml hyaluronic acid (Sigma, from bovine vitreous humor; H-7630). The enzyme was preincubated with the test agent (1 mg/ml for screening purposes) for 10 minutes before starting the reaction by the addition of hyaluronic acid. The enzyme reaction was determined using the method of Aronson and Davidson (J. Biol. Chem. 241 437-440 (1967)). The reaction mixture was incubated for 30 minutes at room temperature. The reaction product was determined colorimetrically with p-dimethylaminobenzaldehyde (Reissig et al., J. Biol. Chem. 217 959-966 (1965)) by measuring the absorbance at 545 nm.
The reversibility of the hyaluronidase was determined by evaluating enzyme activity at different levels of enzyme (Ackermann and Potter, Proc. Soc. Exp. Biol. Med. 72 1-9 (1949)).

In data set [4] the test system is Lactobacillus gasseri. Description: Growth of normal vaginal flora bacterium in culture. It counts as cell-based. The protocol: This example illustrates the effect of the inhibitory agents of this invention on the normal vaginal flora. Lactobacillus gasseri, which is found in normal vaginal flora, was obtained from the American Type Culture Collection (Rockville, Md.) and cultured under anaerobic conditions at 37° C. in the presence of the desired test agents. Control samples without added test agents were also run. Samples were collected at twenty minute intervals starting at 120 minutes after the start of incubation through 240 minutes. The absorbance at 550 nm was used to estimate the cell density and inhibitory effects. Nonoxynol-9 was also evaluated for comparison purposes.

The test system of data set [5] is Neisseria gonorrhea. Description: Bacterial multiplication assay (gonococci). Format: cell-based. The protocol:
This example illustrates the inhibitory effect for several of the inhibitory agents of this invention on Neisseria gonorrhea using a bacterial multiplication assay. Neisseria gonorrhea isolated from local uncomplicated cases of gonorrhea was verified by Gram stain, oxidase reactivity, and sugar fermentation. The titer of log-phase cultures was adjusted by dilution in GC broth to about 10^8 colony forming units per milliliter. Samples were diluted with broth containing no additives (control) and serial dilutions of the test agents (1000 μg/ml to 0.1 μg/ml). The resulting cultures were incubated at 37° C. for 4 hours. Five serial dilutions were made with GC broth; each dilution was inoculated onto GC agar plates. The inoculated plates were incubated overnight at 37° C. and the resultant gonococcal colonies were counted using bright-field microscopy.

Data set [6] has as its system Chlamydia trachomatis (serotype E/UW-5/CS). Description: Chlamydia multiplication assay in HeLa monolayers. It counts as cell-based. As for the experimental part:
This example illustrates the inhibitory effect of several of the inhibitory agents of this invention on Chlamydia trachomatis using a multiplication assay. Immediately before the assay, cryopreserved Chlamydia trachomatis (serotype E/UW-5/CS) samples were quickly thawed at 37° C. and suspended in Hank's balanced salt solution (HBSS) by mild sonication. Serial 1:10 dilutions (10^-1 to 10^-7) of the bacterial suspension were made. HeLa monolayers on coverslips were inoculated with 100 μl of the chlamydia samples in the presence (0.1, 1.0, 10, 100, and 1000 μg/ml) or absence of the test agents. After one hour, the monolayers were washed with HBSS to remove free chlamydia and test agent (if present) and then incubated for 48 hours in HBSS at 37° C.
After the medium was removed, the HeLa monolayer samples were fixed in methanol and washed. The cells were then treated with Kallsted Chlamydia Culture Confirmation fluorescein-conjugated Monoclonal Antibody for 30 minutes at room temperature in a dark, humidified chamber. The cells were then washed with water and covered with coverslip using a mounting medium. Inclusions due to chlamydia infection were visualized with a fluorescent microscope as green fluorescence.

Data set [7] concerns rabbit spermatozoa. The data set is described as follows: Contraceptive effect: rabbit sperm treated before artificial insemination. Format: in vivo. The protocol: Rabbit spermatozoa were collected and then diluted in a TALP buffer containing glucose, lactate, and pyruvate. Test compounds were dissolved in the same buffer system.
Data set [8] can be described thus: physchem. Format: physicochemical.
In data set [9] the test system is sperm. Description: Sperm acrosomal loss. Conditions: 0.5 μg/ml, read-out: maximal acrosomal loss induced. Format: cell-based.
In data set [10] the test system is spermatozoa. It counts as cell-based. Conditions: concentrations as high as 20 mg/ml.
The subject of data set [11] is rabbit spermatozoa. The data set is described as follows: Motility of rabbit sperm in the contraceptive test. It counts as cell-based. The settings on record: rabbit sperm in TALP buffer. As for the experimental part:
Rabbit spermatozoa were collected and then diluted in a TALP buffer containing glucose, lactate, and pyruvate. Test compounds were dissolved in the same buffer system. […] Female rabbits were then artificially inseminated with about 0.5 ml of buffer containing about 22.5-30×10^6 sperm. For controls (i.e., sperm and buffer containing no added contraceptive agents), fertilization averaged about 96 percent.

In data set [12] the test system is human immunodeficiency virus (HIV-1, RF strain). The data set is described as follows: microbe, parasite or virus in culture. Conditions: Human immunodeficiency virus 1, read-out: kill of the virus in culture.
Description: For the cell-free virus inactivation assay, HIV is added to the test agent in water and incubated for about 2 minutes. After removal of the test agent by dilution, the treated virus is added to target cells and incubated for 7 days.
For data set [13], the system named is MT2 cells. The data set is described as follows: Cytotoxicity towards host cells of the viral binding assay. It counts as cell-based. The settings on record: at the levels of the HIV viral binding assay. The protocol:
Serial dilutions of the test compounds (ranging from 0.1 μg/ml to 1.0 mg/ml) were added to HIV-1 virus such that 50 μl inoculum produced between 70 to 100 syncytia per well in untreated wells containing MT2 cells. The HIV-1 used was strain III, propagated in, and harvested from, a T4-lymphobastoid cell line. Each serial dilution of the test compound with virus was placed in each of three wells containing MT2 cells. The test compound alone was added to a fourth well containing MT2 cells to test for possible cytotoxicity. Triplicate virus control samples (no added test compounds but containing the equivalent amounts of the RPMI medium) were also included.

Data set [14] deals with vaginal/cervical epithelial and other cells. The settings on record: concentrations as low as; cited from earlier work.

Converted amounts (≈) assume the structure as drawn. “Also recorded” adds a separate entry of the source.

For orientation: IC50 means the concentration needed to halve the response being measured. As a reminder, the solubility is how much of the substance goes into solution per volume. High values mean a readily soluble substance, low ones a poorly soluble substance.

In the case of `O=C(O)C(OC(C(=O)O)c1ccccc1)c1ccccc1` (stereo not drawn) [H2 SO4 -modified Mandelic Acid, 2,2'-diphenyl-2,2'-oxy-di-acetic acid], the IC50 in data set [1] (Human immunodeficiency virus 1, HIV-1, MT2 cells) is 0.3 µg/mL (≈ 0.00105 mM); in data set [3], 8.4 µg/mL (≈ 0.0293 mM); in data set [5] (Neisseria, gonococcal multiplication, 4 hours), 15 to 17 µg/mL (≈ 0.0524 to 0.0594 mM); in [6] it was 0.05 µg/mL (≈ 0.000175 mM). For the same compound, the IC100 in data set [1] (Human immunodeficiency virus 1, read-out: Complete Inhibition (lowest concentration at which complete inhibition occurs), HIV-1, MT2 cells) is 5 µg/mL. For the same compound, the “HSV inhibition in culture” value in data set [2] (10 μg/ml) is “completely inhibited”. Besides, the IC99.9 in [2] (Vero, read-out: Inhibition 3-Log (99.9 percent), concentration) amounted to 6.8 µg/mL. In data set [2] (Vero, read-out: Inhibition 4-Log (99.99 percent), concentration), the IC99.99 came to 10 µg/mL. Besides, the “reversibility of hyaluronidase inhibition” value in data set [3] (enzyme activity at different levels of enzyme) is recorded as “irreversible”. The “effect on normal vaginal flora” value in data set [4] is recorded as “no apparent adverse effects”. Further, in [4] (5 mg/ml), the “effect on the growth of Lactobacillus” value is “did not have any effect; also recorded: not affected”. The “inhibition of gonococcal multiplication/growth” value in [5] (100 μg/ml) is on record as “completely inhibited; also recorded: complete inhibition”. Further, in data set [7] (5 mg/ml added to sperm/buffer, about 15 minutes at 37° C., controls about 96 percent), the “fertilization (average)” value is recorded as “about 10%”. In addition, the conception result in data set [7] (rabbit sperm treated with about 5 mg/ml prior to artificial insemination) is recorded as “nearly complete inhibition of conception”. Also, the “water solubility (in words)” value in [8] was “water soluble”. This compound had a solubility in data set [8] (water) of approximately 350 mg/mL (≈ 1220 mM). Moreover, the Emax at 0.5 µg/mL in data set [9] is approximately 70%. In addition, the sperm motility entry in [10] is on record as “did not result in the loss of sperm motility”; in data set [11] it was “did not effect sperm motility”. In addition, the killing at 10 µg/mL in data set [12] is approximately 99%.
As for Nonoxynol-9 [reference compound], the IC50 result in [3] was “inactive”. Besides, in [4] (0.5 mg/ml), the “inhibition of Lactobacillus gasseri growth” value is recorded as “about 60%”. Also, the “cytotoxicity towards the MT2 cells” value in data set [13] is listed as “did show cytotoxic effects”. The “concentration that can injure cells” value in data set [14] is “about 0.0005%”.
